Laboratory results from patent publication US20080138284A1, “Novel Peptides That Promote Lipid Efflux” (Lipid Sciences, Inc., priority 2006, published 2008).
Ends that are not written are not given here.

Assays:
[1] = test system: J774 mouse macrophage cells (ABCA1); test: ABCA1 mediated cholesterol efflux; format: cell-based; conditions: peptide samples run at 30 μg/ml
Description: The methods employed in this study have been described in U.S. Pat. Nos. 7,029,863, 7,060,452, U.S. Patent Application Publication No. 2005/0191715, and in Moya et al., Arteriosclerosis & Thrombosis 1994:14:1056-1065 and Liu et al., J. Biol. Chem., 2003:278(44), 42976-42984. SR-B1 mediated cholesterol efflux is examined in FU5AH rat hepatoma cells and ABCA1 mediated cholesterol efflux is examined in J774 mouse macrophage cells as described in these references.

[2] = test system: apoE knockout and LDL-receptor knockout mice; test: Aortic atherosclerosis after ip peptide injection in ApoE knockout and LDL receptor knockout mice; format: in vivo, mouse; conditions: 30 mg/kg ip three times per week, 4-5 or 8-10 weeks; 'proposed studies'
Experimental: ApoE knockout and LDL receptor knockout mice, two well established animal models for the study of atherosclerosis, are injected with either saline as control or the synthetic peptides of the present invention to ascertain if these peptides can be used to increase HDL and decrease atherosclerosis.
The mice receive 3 injections per week for either […] or 8-10 weeks. After the completion of the injection, the amount of hardening of the arteries or atherosclerosis is determined in the control injected animals and peptide injected animals to determine if the injections of the synthetic peptide decreased development of atherosclerosis.
The proposed studies test if intraperitoneal infusions of the apoA-I mimetic peptides of the present invention result in decreased aortic atherosclerosis in apoE and LDL receptor knockout mice, two well established mouse models of atherosclerosis.
Four to six week old C57B1/6 mice, apoE knockout (JAX 2052) and LDL-receptor knockout (JAX 2207) mice, all in the C57B1/6 background, are obtained from Jackson Laboratories. During the entire study, C57B1/6 and apoE knockout mice are maintained on a regular chow diet (0.02% cholesterol, 3% fat) and LDL-receptor mice are maintained on a Western diet (TD88137; Harlan Teklad; Madison, Wis. —containing 0.20% cholesterol and 21% fat).
In the first study (Infusion Study A), C57B1/6 mice as well as apoE knockout and LDL receptor knockout mice are injected by the intraperitoneal (ip) route or intravenous (iv) route with synthetic peptides of the present invention mimetic (30 mg/kg) on up to four different occasions two weeks apart. To evaluate changes in the plasma lipid and lipoprotein profile associated with injection of the synthetic peptide, blood for lipid analyses is obtained before and at 2, 4, 6, 24 and 48 hours after peptide injection. At the end of the study the animals are sacrificed.
For infusion studies B and C, mice are injected ip with either placebo or a synthetic peptide of the present invention (30 mg/kg) three times per week for either 4 to 5 weeks (Infusion Study B) or 8 to 10 weeks (Infusion Study C). Blood for lipid and lipoprotein analyses is obtained at the beginning of the study (day 0) and every two weeks after placebo/peptide injection and at the completion of the study. At the completion of the study (4 to 5 weeks for Infusion Study B and 8 to 10 weeks for Infusion Study C), the animals are sacrificed, organs harvested for analyses of cholesterol content and for aortic atherosclerosis.
For Infusion Study A, 5 four to six week old C57B1/6, apoE knockout (JAX 2052) and LDL receptor knockout (JAX 2207) control mice receive ip or iv injections of the synthetic peptide of the present invention for up to four times two weeks apart. The sequence of procedures for this study is as follows: • 1) Mice are first anaesthetized by using 1-3% isoflurane by inhalation prior to each ip injection to insure appropriate and complete delivery of placebo/peptide. • 2) Mice are injected with either placebo (0.2 ml saline) or apoA-I synthetic peptide (30 mg/kg in 0.2 ml saline) via either the intraperitoneal or intravenous route. • 3) In order to evaluate changes in the plasma lipids and lipoproteins in the time-frame between injections, each mouse in this study group is bled from the retro-orbital sinus following administration of a topical anesthesia. before and at 2, 4, 6, 24 and 48 hours after the peptide injection. No more than 300 ul blood is drawn during this 48 hour period. • 4) At the end of infusion study A all mice are sacrificed by using Avertin (2.5%, 0.011 ml/gm, ip) or ketamine (80 ug/gm, ip). […]

Substance	efflux of cholesterol from J774 macrophage cells (ABCA1 pathway) [1]	aortic atherosclerosis compared to controls [2]
Ac-Gly Glu Glu Met Arg Asp Arg Ala Arg Ala His Val Asp Ala Leu Arg Thr His Ala Lys Pro Val Leu Leu Glu Ser Phe Lys Val Ser Phe Leu Ser Ala Leu Glu Glu Tyr Thr Lys Lys-NH2 (Ac-GEEMRDRARAHVDALRTHAKPVLLESFKVSFLSALEEYTKK-NH2) [SEQ ID NO:354]	stimulate efflux of cholesterol	decrease aortic atherosclerosis compared to controls
Ac-Leu Glu Ser Ala Lys Val Ser Ala Leu Ser Ala Leu Glu Glu Ala Thr Lys Lys Ala Lys Pro Val Leu Leu Glu Ser Phe Lys Val Ser Phe Leu Ser Ala Leu Glu Glu Tyr Thr Lys Lys-NH2 (Ac-LESAKVSALSALEEATKKAKPVLLESFKVSFLSALEEYTKK-NH2) [SEQ ID NO:372]	stimulate efflux of cholesterol	decrease aortic atherosclerosis compared to controls
Ac-Ser Asp Glu Leu Arg Gln Arg Leu Ala Ala Arg Leu Glu Ala Leu Lys Glu Asn Ala Lys Pro Val Leu Leu Glu Ser Phe Lys Val Ser Phe Leu Ser Ala Leu Glu Glu Tyr Thr Lys Lys-NH2 (Ac-SDELRQRLAARLEALKENAKPVLLESFKVSFLSALEEYTKK-NH2) [SEQ ID NO:355]	stimulate efflux of cholesterol	decrease aortic atherosclerosis compared to controls
GEEMRDRARAHVDALRTHAKPVLLESFKVSFLSALEEYTKK [SEQ ID NO:72]	stimulate efflux of cholesterol	decrease aortic atherosclerosis compared to controls
LESAKVSALSALEEATKKAKPVLLESFKVSFLSALEEYTKK [SEQ ID NO:89]	stimulate efflux of cholesterol	decrease aortic atherosclerosis compared to controls
SDELRQRLAARLEALKENAKPVLLESFKVSFLSALEEYTKK [SEQ ID NO:80]	stimulate efflux of cholesterol	decrease aortic atherosclerosis compared to controls
